Measurements taken from PMC7922564, “Molecular Insights into an Antibiotic Enhancer Action of New Morpholine-Containing 5-Arylideneimidazolones in the Fight against MDR Bacteria” (International Journal of Molecular Sciences, 2021).
Several values for one entry are separate records, joined by “and”; a condition that tells them apart may be missing. Identical values can stand only once. Like-named read-outs stand apart in the source and are kept apart here.

Tests used:
K. aerogenes Ea-289 [1] = experiment: MIC reduction assay (antibiotic adjuvant), K. aerogenes Ea-289; type: cell-based, Klebsiella aerogenes;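 note: compound at no more than one quarter of its own MIC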
Procedure: At first, MIC values of compounds were determined (Table S15, Supplementary). Next, their abilities to reduce MICs of the AcrAB-TolC substrates doxycycline (a tetracycline-class antibiotic) and erythromycin were studied (Table S16, Supplementary).
(§1) A subset of compounds, namely 7, 12–16, 19, 20, was also examined for the potential to increase the effectiveness of the antibiotics chloramphenicol, erythromycin, doxycycline, and the fluoroquinolone antibiotic norfloxacin, which all are substrates for AcrAB-TolC in K. aerogenes. In addition to strain Ea-289, the adjuvant-like effect of the compounds was investigated in strain CM-64, which also overexpresses the AcrAB-TolC efflux pump, although it has no changes in porin content, and in the Ea-289 derivatives, i.e., Ea-294 and Ea-308, which are devoid of AcrAB (Table S17, Supplementary).
(§2) Initially, MICs of a series of imidazolone derivatives were assessed against susceptible (reference) and MDR strains of staphylococci. Next, MIC values of the aforementioned antibiotics were determined in the absence and presence of imidazolone derivatives to assess the chemosensitizing effect of these compounds. […] 5-arylideneimidazolones and 5-arylidenethiazolones, which precipitated after addition to bacterial suspension in MH II medium, were tested at the highest concentrations at which precipitation was not observed. […] Antibacterial activity of compounds and antibiotics ampicillin, vancomycin, ciprofloxacin, and erythromycin was recorded as the lowest concentration of molecules able to inhibit bacterial growth after 18 h incubation at 37 °C. The incubation of bacterial strains exposed to oxacillin paired with compounds tested was conducted at 35 °C and extended to 24 h due to frequent occurrence of heterogeneity among MRSA strains. The results are presented as activity gain (A) parameter which was calculated as ratio of MIC of a certain antibiotic (MICAnt) to its MICAnt+Comp, observed in combination with a tested compound (7, 12–16, 19, or 20; Equation (1)). (1) A=(MICAnt/MICAnt+Comp)
(§3) MIC values of 5-arylideneimidazolone derivatives were determined following CLSI recommendations as in the methods described for S. aureus (Section 3.3.1).

MRSA 19449 = experiment: MIC determination (microdilution), MRSA 19449; type: cell-based, Staphylococcus aureus; settings: Staphylococcus aureus, MRSA, no precipitation
Procedure: (§4) Determination of MIC values, i.e., intrinsic antibacterial activity, of products and antibiotics (oxacillin, ampicillin, vancomycin, ciprofloxacin, and erythromycin) in the presence and absence of compounds tested was conducted by the use of a standard 2-fold microdilution method in cation-adjusted Mueller Hinton broth following the Clinical and Laboratory Standards Institute (CLSI) guidelines. The MIC values were detected using an Infinite M200 pro Tecan microplate reader (Tecan® France, SA-Lyon, France). MIC determinations were conducted in 96-well microtiter plates and repeated 3–4 times.
as §2

[2] = tested on: K. aerogenes Ea-289 (overexpression of AcrAB-TolC); experiment: MIC of compounds, K. aerogenes Ea-289; type: cell-based; settings: Klebsiella aerogenes
Procedure: At first, MIC values of compounds were determined (Table S15, Supplementary). Next, their abilities to reduce MICs of the AcrAB-TolC substrates doxycycline (a tetracycline-class antibiotic) and erythromycin were studied (Table S16, Supplementary). […]
as §4, §3

S. aureus ATCC 25923 [3] = experiment: MIC determination (microdilution), S. aureus ATCC 25923; type: cell-based, Staphylococcus aureus; settings: Staphylococcus aureus, ATCC25923, unstarred values of column MIC value/no precipitation; read-out: MIC value
Procedure: as §4, §2

[4] = Water solubility (UV spectroscopy); type: physicochemical
Text: Six representatives of 5-arylideneimidazolones (9–12, 15, 19) were chosen for the determination of water solubility. UV spectroscopy was used for the estimation of concentrations of compounds according to the method described earlier. Acquired UV absorbance, calculated means, and standard deviations for tested compounds are presented in Supplementary Table S18. Solubility results, presented in Table 6, point out that compounds from the same group (A or B, Table 1 and Table 2) with the two-ring aromatic moiety are more soluble than compounds with the fluorene motive (Group A: 9, 10, 11 vs. 12; Group B: 15 vs. 19). […] The most soluble of tested compounds was compound 15, which could be dissolved in water at a concentration of up to 205.502 mM/L.
Water solubility was obtained using UV spectroscopy method. Absorbance of tested solutions of compounds 9-12, 15, and 19, respectively in suitable dilution, in three repetitions as well as calculated arithmetic means, solubility and standard deviations are presented in Table S18. the solubility results […]
Table S18. Results of absorbance used for estimation of water solubility of tested compounds (9-12, 15, 19).
Abbreviations: A1, A2,and A3, UV absorbance in first, second, and third repetition; Amean, arithmetic mean of absorbance from three repetitions; s, standard deviation for absorbance; S, water solubility; SD – standard deviation for solubility. […]

[5] = Stability in acidic and basic conditions (TLC); type: physicochemical; settings: 1 = stable
Procedure: Compounds 9–12, 15, and 19 were also tested for their stability in acidic and basic conditions. This assay was carried out for 48 h and samples were taken at six-time intervals (10 min, 1 h, 2 h, 3 h, 24 h, 48 h). Stability of the compounds was determined using the TLC method. […] In basic conditions, only compounds 10 and 15 were stable for 24 h. […] Results with details, including time of degradation of products obtained, are presented in the Supplementary (Tables S19 and S20). […]
VI. Stability in different pH conditions
Stability of chosen compounds (9-12, 15, and 19) were determined using the TLC method. Assays were performed in acidic and basic conditions and were carried out for 48 h. Samples were taken at six-time intervals (10 min., 1 h, 2 h, 3 h, 24 h, 48 h). […]
of spots observed on TLC, where 1 indicate that compound is stable (only TLC spot for proper compound was observed). Higher values point out how many products of degradation was observed, which can be calculating by subtracting one from number of spots.
Table S19. Results of chosen compounds (9-12, 15, 19) stability in acidic conditions.
Compound Number of TLC spots in defined time
Table S20. Results of chosen compounds (9-12, 15, 19) stability in basic conditions.

[6] = tested on: K. aerogenes CM-64 (overexpression of AcrAB-TolC); experiment: MIC of compounds, K. aerogenes CM-64; type: cell-based; settings: Klebsiella aerogenes, read-out: Minimal Inhibitory Concentration (MIC)
Text: as §1, §4, §3

[7] = tested on: AcrAB-TolC efflux pump in K. aerogenes strain Ea-289; design: method as in PMID 30691112; settings: compound 100 µM; previously described; cited from earlier work
[8] = tested on: K. aerogenes Ea-294, Ea-308 (devoid of AcrAB); experiment: MIC of compounds, K. aerogenes Ea-294, Ea-308; type: cell-based; settings: Klebsiella aerogenes, read-out: Minimal Inhibitory Concentration (MIC)
Text: as §1, §4, §3

S. aureus ATCC 25923 [9] = tested on: S. aureus ATCC 25923; design: method as in earlier work; settings: published previously, cited from earlier work
[10] = tested on: K. aerogenes Ea-294, Ea-308; design: method as in earlier work; settings: doxycycline, chloramphenicol, norfloxacin, already published, cited from earlier work
K. aerogenes CM-64 = tested on: K. aerogenes CM-64; design: method as in earlier work; settings: doxycycline, chloramphenicol, norfloxacin, already published, cited from earlier work
S. aureus ATCC 25923 [11] = tested on: S. aureus ATCC 25923; design: method as in earlier work; settings: starred (*) value; published previously; cited from earlier work
K. aerogenes Ea-289 [12] = tested on: K. aerogenes Ea-289; design: method as in earlier work; settings: doxycycline, chloramphenicol, norfloxacin, already published, cited from earlier work
[13] = read-out: MIC value/no precipitation

SMILES | A (activity gain) (K. aerogenes Ea-289 [1]; doxycycline) | A (activity gain) (K. aerogenes Ea-289 [1]; erythromycin) | melting point [°C] | MIC (MRSA 19449) [µM] | MIC [2, 13] [µM] | MIC (S. aureus ATCC 25923 [3]) [µM] | other results
Cl.NC1=N/C(=C\c2cccc3ccccc23)C(=O)N1CCCN1CCOCC1 [Compound 18, (Z)-5-(Naphthalen-1-ylmethylene)-2-Amino-3-(3-Morpholinopropyl)-Imidazol-4(5H)-one Hydrochloride] | 1 | 1 | 265 to 268 | 2000 | > 250 | 1000 | 
Cl.O=C1N=C(N2CCC(N3CCOCC3)CC2)N/C1=C\c1cccc2ccccc12 (hydrate or solvate) [Compound 11, (Z)-5-(Naphthalen-1-ylmethylene)-2-(4-Morpholinopiperidin-1-yl)-Imidazol-4(5H)-one Hydrochloride] |  |  | 244 to 249 |  |  |  | 
Cl.O=C1N=C(N2CCC(N3CCOCC3)CC2)N/C1=C\c1cccc2ccccc12 [Compound 11, (Z)-5-(Naphthalen-1-ylmethylene)-2-(4-Morpholinopiperidin-1-yl)-Imidazol-4(5H)-one Hydrochloride] | 1 | 1 |  | 31.2 to 250 | > 250 | 31.2 to 250 | solubility [4]: 20200 µg/mL and 47300 µM; Number of TLC spots ([5]; acidic conditions, 10 min): 1; Number of TLC spots ([5]; acidic conditions, 1 h): 1; Number of TLC spots ([5]; acidic conditions, 2 h): 1; Number of TLC spots ([5]; acidic conditions, 3 h): 1; Number of TLC spots ([5]; acidic conditions, 24 h): 1; Number of TLC spots ([5]; acidic conditions, 48 h): 2; Number of TLC spots ([5]; basic conditions, 10 min): 1; Number of TLC spots ([5]; basic conditions, 1 h): 2; Number of TLC spots ([5]; basic conditions, 2 h): 2; Number of TLC spots ([5]; basic conditions, 3 h): 2; Number of TLC spots ([5]; basic conditions, 24 h): 2; Number of TLC spots ([5]; basic conditions, 48 h): 2
NC1=N/C(=C\c2c3ccccc3cc3ccccc23)C(=O)N1CCCN1CCOCC1 [Compound 20] |  |  |  | 31.2 to 250 |  | 31.2 to 250 | MIC [6]: > 2000 µM; Inhibition efficiency (IE) towards extrusion of 1,2'-dNA [7]: 44%; MIC [8]: 2000 µM; MIC reduction (S. aureus ATCC 25923 [9]; oxacillin alone to oxacillin + compound): No effect; A (activity gain) (S. aureus ATCC 25923 [9]; oxacillin): 1; MIC reduction ([10]; erythromycin + compound): No effect; A (activity gain) ([10]; erythromycin): 1; MIC reduction (K. aerogenes CM-64; erythromycin + compound): No effect; A (activity gain) (K. aerogenes CM-64; erythromycin): 1; no precipitation: highest possible concentration of a compound (due to precipitation) at which growth of bacteria was observed (S. aureus ATCC 25923 [11]): 0.0625 mM; MIC reduction (K. aerogenes Ea-289 [12]; erythromycin + compound): No effect; A (activity gain) (K. aerogenes Ea-289 [12]; erythromycin): 1; MIC ([2]; read-out: Minimal Inhibitory Concentration (MIC)): > 2000 µM
Cl.O=C1N=C(N2CCC(N3CCOCC3)CC2)S/C1=C\c1ccc2c(c1)Cc1ccccc1-2 [Compound 22, (Z)-5-((9H-Fluoren-2-yl)methylene)-2-(4-Morpholinopiperidin-1-yl)Thiazol-4-one Hydrochloride] | 1 | 1 | 244 to 246 | 31.2 to 250 | > 250 | 62.5 | 
Cl.O=C1N=C(NCCCN2CCOCC2)S/C1=C\c1ccc2c(c1)Cc1ccccc1-2 [Compound 23, (Z)-5-((9H-Fluoren-2-yl)methylene)-2-((3-Morpholinopropyl)amino)Thiazol-4(5H)-one Hydrochloride] | 1 | 1 | 243 to 245 | 31.2 to 250 | > 62.5 | 31.2 to 250 | 
